Usually IC50 stands for the point on the concentration scale where inhibition reaches its midpoint.

The results in this text go back to ChEMBL document CHEMBL6087391, “Novel bibenzyl compound 8Ae induces apoptosis and inhibits glycolysis by detaching hexokinase 2 from mitochondria in A549 cells” (Bioorg Med Chem, 2024).

Data set [1] has as its system A549. The data set can be described thus: Inhibition of glycolysis in human A549 cells assessed as downregulation of GLUT1 expression in cytosol fraction at 1 to 10 uM incubated for 48 hrs by Western blotting analysis. The format is functional, cell-based. The settings on record: dose 1-10 µM. Background: A western blot detects proteins with antibodies after separation by electrophoresis.

The subject of data set [2] is A549. The data set can be described thus: Induction of apoptosis in human A549 cells assessed as upregulation of Cyt C expression in cytosol fraction at 1 to 10 uM incubated for 48 hrs by Western blotting analysis. It counts as functional, cell-based. The settings on record: dose 1-10 µM.
For data set [3], the system named is A549. Briefly: Induction of apoptosis in human A549 cells assessed as early apoptotic cells at 1 uM incubated for 48 hrs by Annexin V-FITC/PI staining based flow cytometry. The format is functional. On the technique in general: In flow cytometry, cells or beads pass a laser one at a time.
Data set [4] concerns A549. Briefly: Induction of apoptosis in human A549 cells assessed as early apoptotic cells at 10 uM incubated for 48 hrs by Annexin V-FITC/PI staining based flow cytometry. The format is functional.
The test system of data set [5] is A549. Briefly: Induction of apoptosis in human A549 cells assessed as downregulation of Bcl-2 expression at 1 to 10 uM incubated for 48 hrs by Western blotting analysis. The format is functional, cell-based. The settings on record: dose 1-10 µM.
In data set [6] the test system is A549. Briefly: Induction of apoptosis in human A549 cells assessed as late apoptotic cells at 5 uM incubated for 48 hrs by Annexin V-FITC/PI staining based flow cytometry. The format is functional.
The subject of data set [7] is A549. The data set can be described thus: Inhibition of glycolysis in human A549 cells assessed as downregulation of HK2 expression in mitochondrial fraction at 1 to 10 uM incubated for 48 hrs by Western blotting analysis. It counts as functional, cell-based. The settings on record: dose 1-10 µM.
The test system of data set [8] is A549. The data set can be described thus: Induction of apoptosis in human A549 cells assessed as downregulation of Cyt C expression in mitochondrial fraction at 1 to 10 uM incubated for 48 hrs by Western blotting analysis. It counts as functional, cell-based. To be noted: dose 1-10 µM.
The subject of data set [9] is A549. The data set can be described thus: Induction of apoptosis in human A549 cells assessed as late apoptotic cells at 1 uM incubated for 48 hrs by Annexin V-FITC/PI staining based flow cytometry. The format is functional.
Data set [10] relates to BEAS-2B. Briefly: Antiproliferative activity against human BEAS-2B cells assessed as inhibition of cell growth incubated for 48 hrs by MTT assay. It counts as toxicity, cell-based.
Data set [11] deals with A549. Briefly: Inhibition of glycolysis in human A549 cells assessed as reduction in lactate production at 10 uM incubated for 48 hrs by trypan blue staining based spectrophotometry. It counts as functional.
For data set [12], the system named is A549. Briefly: Inhibition of glycolysis in human A549 cells assessed as decrease in HK2 activity incubated for 48 hrs by spectrophotometric assay. The settings on record: A549, 48 h. The format is functional, cell-based.
For data set [13], the system named is A549. Briefly: Inhibition of glycolysis in human A549 cells assessed as downregulation of GLUT1 expression at 1 to 10 uM incubated for 48 hrs by Western blotting analysis. It counts as functional, cell-based. The settings on record: dose 1-10 µM.
In data set [14] the test system is A549. The data set can be described thus: Induction of apoptosis in human A549 cells assessed as increase in ratio of Bax/Bcl-2 at 1 to 10 uM incubated for 48 hrs by Western blotting analysis. It counts as functional, cell-based. To be noted: dose 1-10 µM.
Data set [15] concerns A549. Briefly: Induction of mitochondria mediated apoptosis in human A549 cells assessed as reduction in HK2 level at 1 to 10 uM incubated for 48 hrs by immunofluorescence confocal microscopic analysis. The format is functional, cell-based. The settings on record: dose 1-10 µM.
Data set [16] relates to Mitochondrial membrane. The data set can be described thus: Induction of mitochondrial membrane potential loss in human A549 cells at 1 to 10 uM incubated for 48 hrs by JC-1 dye based fluorescence microscopic analysis. It counts as cell membranes. To be noted: dose 1-10 µM.
The test system of data set [17] is A549. Briefly: Inhibition of glycolysis in human A549 cells assessed as reduction in glucose uptake incubated for 48 hrs by Amplex red dye based spectrophotometry. The format is functional, cell-based.
The subject of data set [18] is A549. The data set can be described thus: Inhibition of glycolysis in human A549 cells assessed as reduction in lactate production at 5 uM incubated for 48 hrs by trypan blue staining based spectrophotometry. It counts as functional.
The subject of data set [19] is A549. Briefly: Induction of apoptosis in human A549 cells assessed as downregulation of AKT expression at 1 to 10 uM incubated for 48 hrs by Western blotting analysis. It counts as functional, cell-based. To be noted: dose 1-10 µM.
For data set [20], the system named is A549. Briefly: Inhibition of glycolysis in human A549 cells assessed as downregulation of HK2 expression incubated for 48 hrs by Western blotting analysis. It counts as functional, cell-based.
Data set [21] concerns A549. The data set can be described thus: Inhibition of glycolysis in human A549 cells assessed as reduction in lactate production at 1 uM incubated for 48 hrs by trypan blue staining based spectrophotometry. It counts as functional.
Data set [22] concerns A549. Briefly: Induction of apoptosis in human A549 cells assessed as late apoptotic cells at 10 uM incubated for 48 hrs by Annexin V-FITC/PI staining based flow cytometry. The format is functional.
The subject of data set [23] is A549. Briefly: Antiproliferative activity against human A549 cells assessed as inhibition of cell growth incubated for 48 hrs by MTT assay. It counts as functional, cell-based. To be noted: A549, 48 h. Background: Tetrazolium dyes change colour on reduction, which living cells bring about.
For data set [24], the system named is A549. The data set can be described thus: Induction of apoptosis in human A549 cells assessed as early apoptotic cells at 5 uM incubated for 48 hrs by Annexin V-FITC/PI staining based flow cytometry. It counts as functional.
Data set [25] has as its system A549. Briefly: Inhibition of glycolysis in human A549 cells assessed as downregulation of HK2 expression in cytosol fraction at 1 to 10 uM incubated for 48 hrs by Western blotting analysis. It counts as functional, cell-based. To be noted: dose 1-10 µM.
The subject of data set [26] is A549. Briefly: Induction of apoptosis in human A549 cells assessed as upregulation of Bax expression at 1 to 10 uM incubated for 48 hrs by Western blotting analysis. The format is functional, cell-based. The settings on record: dose 1-10 µM.
Data set [27] deals with MDA-MB-231. The data set can be described thus: Antiproliferative activity against human MDA-MB-231 cells assessed as inhibition of cell growth incubated for 48 hrs by MTT assay. It counts as functional, cell-based. The settings on record: MDA-MB-231, 48 h.
In data set [28] the test system is A549. Briefly: Induction of apoptosis in human A549 cells assessed as downregulation of AKT phosphorylation at 1 to 10 uM incubated for 48 hrs by Western blotting analysis. It counts as functional, cell-based. To be noted: dose 1-10 µM.
In data set [29] the test system is A549. The data set can be described thus: Antiproliferative activity against human A549 cells assessed as reduction in cell viability incubated for 48 hrs by MTT assay. The format is functional, cell-based.
Data set [30] deals with A549. The data set can be described thus: Induction of mitochondria mediated apoptosis in human A549 cells assessed as reduction in HK2 level at […] incubated for 48 hrs by immunofluorescence confocal microscopic analysis. It counts as functional, cell-based.

Structures are written as SMILES. Activity calls are given as the source filed them. No cut-off for these calls is given here.

As for `COc1cc(CCc2ccccc2Cl)cc(OC)c1O`, the inhibition entry in [1] and in [25] was “inactive” in each case. Further, the result in [2], in data set [5], in data set [8], in data set [14], in [15] and in data set [16] was Active. Moreover, the result in [26] and in [28] was Active. The Activity in [3] is given as 16.9%; in [4], 33.53%; in [6], 24.7%; in [9], 21.6%; in [10], “Toxic”; in data set [11], 3.91 mmol/L. Moreover, the Activity in data set [18] was 4.38 mmol/L; in [21] it was 4.54 mmol/L; in [22], 34.5%; in data set [24], 30.9%; in [29], “Dose-dependent-effect”. Moreover, the inhibition entry in data set [7], in data set [17] and in data set [20] was “Dose-dependent-effect” each time. In addition, the figures for the IC50 in [12], in data set [23] and in data set [27] were approximately 10 µM, 2.72 µM and 19.2 µM, respectively. Besides, in data set [13], the inhibition result was “Active”. The outcome in data set [19] was inactive.
For the compound `OC[C@H]1OC(O)C[C@@H](O)[C@@H]1O` (some centres not stated), the result in data set [30] was Active.
With `CC(C)=CCC[C@]1(C)C=Cc2c(O)c3c(c(CC=C(C)C)c2O1)O[C@]12C(=C[C@@H]4C[C@H]1C(C)(C)O[C@@]2(C/C=C(/C)C(=O)O)C4=O)C3=O` [GAMBOGIC ACID], the Activity in data set [4] was determined as 30.67%; in [22], 30.2%.
